Laboratory results as given in patent US8329919B2, “Salt hydrates” (Novartis AG, priority 2002, dated 2012).

Test: Thermogravimetry: weight loss, i.e. water loss, as a function of temperature (thermobalance TGS-2)
Assay type: physicochemical
Details: heating rate 10 K·min^−1, water-free N2 atmosphere
Protocol: Using thermogravimetry, in a water-free N2 atmosphere, the weight loss, i.e. the water loss for the tetrahydrate of the calcium salt of valsartan A1,Ca as a function of temperature, was measured at a heating rate of 10 K·min^−1. […]
Using thermogravimetry, in a water-free N2 atmosphere, the weight loss, i.e. the water loss for the trihydrate of the calcium salt of valsartan in the polymorphic form B1,Ca as a function of temperature, was measured at a heating rate of 10 K·min^−1.
(§1) Using thermogravimetry, in a water-free N2 atmosphere, the weight loss, i.e. the water loss for the trihydrate B2,Ca as a function of temperature, was measured at a heating rate of 10 K·min^−1. The results for the polymorph B2,Ca of the trihydrate of the calcium salt of valsartan are illustrated in table 4.
as §1, with “B3,Ca” for “B2,Ca”, “polymorphic form B3,Ca” for “polymorph B2,Ca”, “5.” for “4.”
Using thermogravimetry, in a water-free N2 atmosphere, the weight loss, i.e. the water loss for the di-(calcium salt of valsartan) pentahydrate D1,Ca as a function of temperature, was measured at a heating rate of 10 K·min^−1.
The instrument used for the calorimetric data is throughout a DSC Pyris 1 (Differential Scanning calorimeter) obtained from Perkin-Elmer Corp., Norwalk, Conn. USA. The measurements are performed with samples enclosed in a sealed gold specimen container with an internal free volume of ca. 22 microliters, with a sample weight of 2 to 4 mg and with a heating rate of Tr=10K·min^−1. […] The instrument used was a TGS-2 (Perkin-Elmer Corp., Norwalk, Conn. USA) and the measurement was performed in a water free atmosphere. The heating rate selected was 10 K·min^−1. The weight loss is illustrated in table 7.
The heating rate selected was 10K·min^−1.
Using thermogravimetry, in a water-free N2 atmosphere, the weight loss, i.e. the water loss for the tetrahydrate as a function of temperature, was measured at a heating rate of 10 K·min^−1. The results for the calcium salt of valsartan tetrahydrate A0,Ca are listed in the following: […]
Using thermogravimetry, in a water-free N2 atmosphere, the weight loss, i.e. the water loss for the tetrahydrate of the calcium salt of valsartan as a function of temperature, was measured at a heating rate of 10 K·min^−1.

Question: For “(S)—N-(1-carboxy-2-methyl-prop-1-yl)-N-pentanoyl-N-[2′-(1H-tetrazol-5-yl)-biphenyl-4-ylmethyl]-amine calcium salt trihydrate [B2,Ca]”, which “weight loss or water loss in %” value (temperature 25 °C) is on record?
Answer: 0%

Question: And the “weight loss or water loss in %” value (temperature 25 °C, calcium salt trihydrate, crystalline trihydrate B2,Ca polymorph)?
Answer: 0.1 ± 0.2%

Question: And the “weight loss or water loss in %” value (temperature 50 °C, calcium salt trihydrate, crystalline trihydrate B2,Ca polymorph)?
Answer: 0.9 ± 0.3%

Question: And the “weight loss or water loss in %” value (temperature 75 °C, calcium salt trihydrate, crystalline trihydrate B2,Ca polymorph)?
Answer: 2.2 ± 0.5%

Question: And the “weight loss or water loss in %” value (temperature 100 °C, calcium salt trihydrate, crystalline trihydrate B2,Ca polymorph)?
Answer: 5.8 ± 0.5%

Question: And the “weight loss or water loss in %” value (temperature 125 °C, calcium salt trihydrate, crystalline trihydrate B2,Ca polymorph)?
Answer: 8.9 ± 0.5%

Question: And the “weight loss or water loss in %” value (temperature 150 °C, calcium salt trihydrate, crystalline trihydrate B2,Ca polymorph)?
Answer: 9.9 ± 0.5%

Question: And the “weight loss or water loss in %” value (temperature 175 °C, calcium salt trihydrate, crystalline trihydrate B2,Ca polymorph)?
Answer: 10.2 ± 0.5%

Question: And the “weight loss or water loss in %” value (temperature 200 °C)?
Answer: 9.7%

Question: And the “weight loss or water loss in %” value (temperature 200 °C, calcium salt trihydrate, crystalline trihydrate B2,Ca polymorph)?
Answer: 10.3 ± 0.5%

Question: And the “weight loss or water loss in %” value (temperature 225 °C, calcium salt trihydrate, crystalline trihydrate B2,Ca polymorph)?
Answer: 10.5 ± 0.5%

Question: And the “weight loss or water loss in %” value (temperature 250 °C, calcium salt trihydrate, crystalline trihydrate B2,Ca polymorph)?
Answer: 10.5 ± 0.5%

Question: And the “weight loss or water loss in %” value (temperature 275 °C, calcium salt trihydrate, crystalline trihydrate B2,Ca polymorph)?
Answer: 10.8 ± 0.5%
